Results on 15 compounds are retold here after publication PMC11506774 (Biomolecules, 2024).

pEC50: −log10 of the molar value. ≈ marks a conversion by molar mass, not a printed value. Ends that are not written are not given here.

For data set [1], the system named is EV-A71. To be noted: Table S2, anti-viral target EV-A71; ref [21]; cited from earlier work. An excerpt: page 2: Biomolecules 2024, 14, 1331. https://doi.org/10.3390/biom14101331 2 of 10 Table S2. Self-derived antiviral peptides. Source Virus Protein Peptide Sequence Mechanism Anti-viral EC50 Reference target […] Interfering PA- Influenza A PB1 PB11-25 TTFPYT binding domain of Influenza A / [48] PB1 PB1731– […] Interfering PB1- Influenza A PB1 757 ELGRQK binding domain of Influenza A / [22] PB2 EV-A71 VP1 SP40 […] Prevented EV-A71 EV-A71 6-9.3 [21] attachment μM […] Inhibiting S 0.32- HCoV-19 S P3 […] mediated cell–cell HC ...

Data set [2] has as its system HCV. To be noted: cited from earlier work.
Data set [3] concerns EV-A71/FY0805. To be noted: for IC50 (µg/mL) EV-A71 /FY0805: 24 h.
Data set [4] concerns EV-A71/FY0805. The data set is described as follows: Receptor competition inhibition assay with cell-free heparan sulfate (HS). The data set is classed as cell-based. To be noted: peptide 62.5 µg/mL pre-incubated with HS (0–0.5 mg/mL) for 1 h, then mixed with 100 TCID50/50 µL EV-A71/FY0805, RD cells 24 h, crystal violet. On the procedure:
To confirm the interaction of P25 with receptor heparan sulfate (HS) on the cell surface, 50 µL P25 or its derivatives at a concentration of 62.5 µg/mL were pre-incubated with 50 µL cell-free HS (MCE, HY-101916, Princeton, NJ, USA) at different concentrations of 0–0.5 mg/mL at 37 °C for 1 h, mixed with 100 TCID50/50 µL of EV-A71/FY0805, and infected the pre-seeding RD monolayer cells on 96-well plates for 24 h. The CPE was detected and stained using crystal violet. The optical density (OD) at 550 nm was read using the TECAN Infinite 200 PRO instrument.

Data set [5] concerns Echo 30/WZ16. To be noted: RD cells, 24 h, crystal violet.
The subject of data set [6] is EV-D68/BCH895A. To be noted: RD cells, 24 h, crystal violet.
Data set [7] relates to RD cells. Nature of the data set: Cytotoxicity assay (CCK-8). Type of data set: cell-based. To be noted: 24 h, 2-fold dilutions from 1 mg/mL, CCK-8, absorbance 450 nm, mean ± SD, at least two independent experiments. On the procedure:
RD cells at a density of 4 × 10^4/100 µL/well were seeded in 96-well plates 24 h prior to the cytotoxicity assay. The peptide P25 and its derivatives were reconstituted in DMSO to a concentration of 25 mg/mL and then diluted to 1 mg/mL in DMEM with 100 mM HEPES, from which 2-fold serial dilutions of the peptides were produced, starting with the same medium. DMSO diluted in the same medium served as the control. Fifty microliters of diluted peptides and the control medium were added to the cells and cultured for 24 h. After cultivation, 5 µL of the enhanced CCK-8 reagent (Beyotime, C0043, Shanghai, China) were added directly to each well of the cell culture and cultured for an additional hour. Absorbance at 450 nm was detected using a TECAN Infinite 200 PRO instrument. The cell viability was normalized to the control, and the concentration at which a peptide inhibited 50% of the cell viability (CC50) was calculated using GraphPad Prism 9.5.1 (GraphPad software, San Diego, CA, USA).

Data set [8] has as its system Poliovirus 3/nOPV3. To be noted: 24 h.
Setting [9] is: peptide at 125 µg/mL (about 56 µM) co-incubated with 100 TCID50/50 µL virus.
The mark [10] stands for this setting: co-treatment, 100 TCID50/50 µL, mean ± SD, at least two independent experiments, >125 = protection less than 50% at 125 µg/mL, NO = no inhibition observed.

The term pEC50 denotes −log10 of the EC50, conventionally taken in molar units. In general, CC50 refers to the concentration that lowers cell viability or growth by half.

Consider “QMRRKVELFTYMRFD [SP40, peptide derived from VP1 of EV-A71, prevented EV-A71 attachment]”, for which the pEC50 in data set [1] is 5.03 to 5.22.

For the compound SFAIKWEYVLLLFLL [Peptide 75], the pEC50 in data set [2] is 6.52.

For `CC[C@H](C)[C@H](NC(=O)[C@H](Cc1c[nH]cn1)NC(=O)[C@H](CCCCN)NC(=O)[C@@H]1CCCN1C(=O)[C@H](CCCCN)NC(=O)[C@H](CCSC)NC(=O)[C@H](Cc1ccc(O)cc1)NC(=O)[C@@H](NC(=O)[C@H](CCCNC(=N)N)NC(=O)[C@@H](NC(=O)[C@@H](NC(=O)[C@@H](NC(=O)[C@@H](N)[C@@H](C)O)C(C)C)[C@@H](C)O)C(C)C)C(C)C)C(=O)N[C@@H](CCCCN)C(=O)O` [Peptide P25.2], the “IC50 (µg/mL) EV-A71 /FY0805” value in data set [3] is over 125 µg/mL.

`CC[C@H](C)[C@H](NC(=O)[C@H](Cc1c[nH]cn1)NC(=O)[C@H](CCCCN)NC(=O)[C@@H]1CCCN1C(=O)[C@H](CCCCN)NC(=O)[C@H](CCSC)NC(=O)[C@H](Cc1ccc(O)cc1)NC(=O)[C@@H](NC(=O)[C@H](CCCNC(=N)N)NC(=O)[C@@H](NC(=O)[C@@H](NC(=O)[C@@H](NC(=O)[C@@H](N)[C@@H](C)O)C(C)C)[C@@H](C)O)C(C)C)C(C)C)C(=O)N[C@@H](CCCCN)C(=O)N[C@@H](C)C(=O)N[C@@H](Cc1c[nH]c2ccccc12)C(=O)N[C@@H](C)C(=O)O` [Peptide P25.5]: the “Interference of HS with the antiviral activity of the peptide” value in data set [4] is reported as “No significant interference”. Further, in data set [3], the “IC50 (µg/mL) EV-A71 /FY0805” value is on record as over 125 µg/mL.

For the compound TVTVRVYHK [Peptide P25.4], the “IC50 (µg/mL) EV-A71 /FY0805” value in data set [3] was over 125 µg/mL.

In the case of GFTVTVRVYMK [Peptide P25.1], in data set [3], the “IC50 (µg/mL) EV-A71 /FY0805” value worked out at 34.06 ± 9.39 µg/mL.

Turning to ADKNFFKWTINTRSFVQLRR [Peptide P11], the “Inhibitory effect on CPE, peptide screen” value in data set [3], in data set [5] (setting [9]) and in data set [6] (setting [9]) was “exhibited inhibitory effects on CPE” in each case.

For the compound TVTVRVYMK [Peptide P25.3], the “IC50 (µg/mL) EV-A71 /FY0805” value in data set [3] was over 125 µg/mL.

Regarding `CC[C@H](C)[C@H](NC(=O)[C@H](Cc1c[nH]cn1)NC(=O)[C@H](C)NC(=O)[C@@H]1CCCN1C(=O)[C@H](CCCCN)NC(=O)[C@H](CCSC)NC(=O)[C@H](Cc1ccc(O)cc1)NC(=O)[C@@H](NC(=O)[C@H](CCCNC(=N)N)NC(=O)[C@@H](NC(=O)[C@@H](NC(=O)[C@@H](NC(=O)[C@@H](NC(=O)[C@H](Cc1ccccc1)NC(=O)CN)[C@@H](C)O)C(C)C)[C@@H](C)O)C(C)C)C(C)C)C(=O)N[C@@H](C)C(=O)N[C@@H](C)C(=O)N[C@@H](Cc1c[nH]c2ccccc12)C(=O)N[C@@H](C)C(=O)O` [Peptide P25.12], in data set [3], the “IC50 (µg/mL) EV-A71 /FY0805” value was 41.17 ± 7.04 µg/mL (≈ 19.4 µM).

Regarding `CC[C@H](C)[C@H](NC(=O)[C@H](Cc1c[nH]cn1)NC(=O)[C@H](CCCCN)NC(=O)[C@@H]1CCCN1C(=O)[C@H](CCCCN)NC(=O)[C@H](CCSC)NC(=O)[C@H](Cc1ccc(O)cc1)NC(=O)[C@@H](NC(=O)[C@H](CCCNC(=N)N)NC(=O)[C@@H](NC(=O)[C@@H](NC(=O)[C@@H](NC(=O)[C@@H](NC(=O)[C@@H](N)Cc1ccccc1)[C@@H](C)O)C(C)C)[C@@H](C)O)C(C)C)C(C)C)C(=O)N[C@@H](CCCCN)C(=O)N[C@@H](C)C(=O)N[C@@H](Cc1c[nH]c2ccccc12)C(=O)N[C@@H](C)C(=O)O` [Peptide P25.8], the 50% cytotoxic concentration (CC50) in data set [7] is listed as 213.07 ± 29.72 µg/mL (≈ 97.9 µM). Moreover, the “Interference of HS with the antiviral activity of the peptide” value in data set [4] is on record as “interfered with by HS”. The “IC50 (µg/mL) EV-A71 /FY0805” value in data set [3] amounted to 24.49 ± 2.96 µg/mL (≈ 11.3 µM). Also, the “IC50 (µg/mL) Poliovirus 3 /nOPV3” value in data set [8] came to 61.65 ± 4.59 µg/mL (≈ 28.3 µM).

Consider AWAKIHKPKMYVRVTVTFG [Peptide P25.R], for which the CC50 in data set [7] was 98.27 ± 7.13 µg/mL.

For the compound HGLLYFAIFFVAAWHIRGR [Peptide H2-3], the negative logarithm of the EC50 (pEC50) in data set [2] was 6.27.

“SWLRDIWDWICEVLSDFK [Peptide C5A, peptide from NS5A of HCV, destabilizing viral membranes]”: the pEC50 in data set [2] is 6.47.

For `CC[C@H](C)[C@H](NC(=O)[C@H](CCCNC(=N)N)NC(=O)[C@@H](NC(=O)[C@@H](NC(=O)[C@@H](NC(=O)[C@H](CCCCN)NC(=O)[C@@H](NC(=O)[C@@H](N)CCCCN)C(C)C)C(C)C)C(C)C)[C@@H](C)O)C(=O)N[C@@H](Cc1ccc(O)cc1)C(=O)N[C@@H](Cc1c[nH]cn1)C(=O)N[C@@H](CCCCN)C(=O)N[C@@H](C)C(=O)N[C@@H](CCCCN)C(=O)N[C@@H](Cc1c[nH]cn1)C(=O)N[C@H](C(=O)N[C@@H](CCCCN)C(=O)N[C@@H](C)C(=O)N[C@@H](Cc1c[nH]c2ccccc12)C(=O)N[C@@H](CS)C(=O)O)[C@@H](C)O` [Peptide P25.A81], in data set [3], the “Antiviral activity of P25 homologous peptides to EV-A71/FY0805” value is “displayed antiviral activity” and the “IC50 (µg/mL) EV-A71 /FY0805” value worked out at 23.60 ± 0.49 µg/mL (≈ 10.3 µM).

On to `CC[C@H](C)[C@H](NC(=O)[C@H](CCCNC(=N)N)NC(=O)[C@@H](NC(=O)[C@@H](NC(=O)[C@@H](NC(=O)[C@H](CCCCN)NC(=O)[C@H](Cc1ccccc1)NC(=O)CN)C(C)C)C(C)C)[C@@H](C)O)C(=O)N[C@@H](Cc1ccc(O)cc1)C(=O)N[C@@H](Cc1c[nH]cn1)C(=O)N[C@@H](CCCCN)C(=O)N[C@@H](C)C(=O)N[C@@H](CCCCN)C(=O)N[C@@H](Cc1c[nH]cn1)C(=O)N[C@H](C(=O)N[C@@H](CCCCN)C(=O)N[C@@H](C)C(=O)N[C@@H](Cc1c[nH]c2ccccc12)C(=O)N[C@@H](CS)C(=O)O)[C@@H](C)O` [Peptide P25.A81GF], for which, in data set [3], the “IC50 (µg/mL) EV-A71 /FY0805” value was determined as 29.28 ± 3.97 µg/mL (≈ 12.9 µM). Also, the “IC50 (µg/mL) Echo 30 /WZ16” value in data set [5] (setting [10]) is recorded as over 125 µg/mL. In addition, the “IC50 (µg/mL) Poliovirus 3 /nOPV3” value in data set [8] was over 125 µg/mL. Also, the “IC50 (µg/mL) EV-D68 /BCH895A” value in data set [6] (setting [10]) is given as over 125 µg/mL.
